Laboratory results taken from paper PMC10150354, “Linearization of the Brevicidine and Laterocidine Lipopeptides Yields Analogues That Retain Full Antibacterial Activity” (Journal of Medicinal Chemistry, 2023).
≈ marks a conversion by molar mass, not a printed value. Where a SMILES comes first, the peptide text is derived from it. Bridges are numbered along the chain shown (N, C = ends). [ ]: non-standard residue; d: D form. The star is where a group is joined. ξ: configuration not given here. Octanoyl(7-Me) = CC(C)CCCCCC(=O)*; Hexanoyl(4ξ-Me) = CCC(C)CCC(=O)*; dOrn = NCCC[C@@H](N)C(=O)O; Orn = NCCC[C@H](N)C(=O)O; Dap = NC[C@H](N)C(=O)O; Alloc = C=CCOC(=O)*

Assays:
P. aeruginosa PAO1 = type: cell-based, Pseudomonas aeruginosa; details: microbroth dilution per CLSI, MHB, 18 h at 37 °C, visual inspection, three technical replicates
Method: (§1) Linear laterocidine (LL-OH, 4) and linear brevicidine (LB-OH, 5) were first synthesized by Fmoc SPPS, starting from 2-chlorotrityl (2-CT) chloride resin. The antibacterial activity of these peptides was then compared to brevicidine (1) and laterocidine (2) using minimum inhibitory concentration (MIC)/microbroth dilution assays (Table 1). The MICs of all peptides were determined against a panel of Gram-negative and Gram-positive ESKAPE pathogens. Additionally, a strain of E. coli carrying the mcr-1 gene was included in the panel. The mcr-1 gene is a transferrable plasmid that confers resistance against colistin, a last-resort antibiotic for Gram-negative infections, by reducing the overall negative charge of lipopolysaccharide (LPS) through modification of lipid A with phosphoethanolamine. The propensity for cationic antibiotics to bind to the cell membrane is therefore reduced. This gene has been observed in more than 27 bacterial species over six continents.[26] The spread of the mcr-1 gene could render colistin ineffectual; therefore, novel antibacterials are urgently required to overcome this form of resistance.
(§2) All minimum inhibitory concentrations (MICs) were determined according to Clinical and Laboratory Standards Institute (CLSI) guidelines. Blood agar plates were inoculated with glycerol stocks of E. coli ATCC 25922, K. pneumoniae ATCC 13883, A. baumannii ATCC 17961, P. aeruginosa PAO1, and S. aureus USA300. The inoculated agar plates were then incubated for 16 h at 37 °C. Individually grown colonies were subsequently used to inoculate 5 mL aliquots of TSB that were then incubated at 37 °C with shaking at 220 rpm. E. coli 25922 MCR-1 glycerol stock was used to inoculate 5 mL of TSB supplemented with kanamycin that was then incubated for 16 h at 37 °C with shaking at 220 rpm. The next day the culture was diluted 100-fold in TSB supplemented with kanamycin and incubated at 37 °C with shaking at 220 rpm. In parallel, the lipopeptide antibiotics DMSO stocks to be assessed were serially diluted with MHB in polypropylene 96-well plates (50 μL in each well). Colistin sulfate stocks were dissolved in water before being diluted with MHB. Aliquots of the inoculated TSB were incubated until an OD600 of around 0.5 was reached. The bacterial suspensions were then diluted with MHB (2 × 10^5 CFU/mL) and added to the microplates containing the test compounds (50 μL to each well). The well plates were sealed with an adhesive membrane and after 18 h of incubation at 37 °C with shaking at 600 rpm, the wells were visually inspected for bacterial growth. MIC values reported are based on three technical replicates and defined as the lowest concentration of the compound that prevented visible growth of bacteria.

E. coli (MCR-1) = type: cell-based, Escherichia coli; details: microbroth dilution per CLSI, MHB, 18 h at 37 °C, visual inspection, three technical replicates, E. coli 25922 carrying mcr-1
Method: as §1, §2

E. coli ATCC 25922 = type: cell-based, Escherichia coli; details: for Antibacterial activity (MIC) E. coli ATCC 25922: microbroth dilution per CLSI, MHB, 18 h at 37 °C, visual inspection, three technical replicates; for MIC (µg/mL) against E. coli (ATCC 25922): (Supplement 2)
Method: as §1, §2

K. pneumoniae ATCC 13883 = type: cell-based, Klebsiella pneumoniae; details: microbroth dilution per CLSI, MHB, 18 h at 37 °C, visual inspection, three technical replicates
Method: as §1, §2

S. aureus USA300 = type: cell-based, Staphylococcus aureus; details: microbroth dilution per CLSI, MHB, 18 h at 37 °C, visual inspection, three technical replicates
Method: as §1, §2

A. baumannii ATCC 17961 = type: cell-based, Acinetobacter baumannii; details: microbroth dilution per CLSI, MHB, 18 h at 37 °C, visual inspection, three technical replicates
Method: as §1, §2

SMILES | Antibacterial activity (MIC) P. aeruginosa PAO1 (P. aeruginosa PAO1) [µg/mL] | Antibacterial activity (MIC) E. coli (MCR-1) (E. coli (MCR-1)) [µg/mL] | Antibacterial activity (MIC) E. coli ATCC 25922 (E. coli ATCC 25922) [µg/mL] | Antibacterial activity (MIC) K. pneumoniae ATCC 13883 (K. pneumoniae ATCC 13883) [µg/mL] | Antibacterial activity (MIC) S. aureus USA300 (S. aureus USA300) [µg/mL] | Antibacterial activity (MIC) A. baumannii ATCC 17961 (A. baumannii ATCC 17961) [µg/mL] | MIC (µg/mL) against E. coli (ATCC 25922) (E. coli ATCC 25922) [µg/mL]
CC[C@H](C)[C@H](NC(=O)[C@@H](NC(=O)[C@H](Cc1c[nH]c2ccccc12)NC(=O)[C@@H](CCCN)NC(=O)CNC(=O)[C@H](CCCN)NC(=O)[C@@H](CCCN)NC(=O)[C@@H](Cc1c[nH]c2ccccc12)NC(=O)[C@@H](C)NC(=O)[C@@H](CO)NC(=O)CCCCCC(C)C)[C@@H](C)O)C(=O)N[C@@H](CC(N)=O)C(=O)NCC(=O)NCC(N)=O [LL(D-Ala2)-NH2 (30)] ({Octanoyl(7-Me)}-[dS][dA][dW][dOrn][Orn]G[dOrn]WTINGG-NH2) | 16 | 32 | 32 | >32 | >32 | >32 | 
CC[C@H](C)[C@@H]1NC(=O)[C@@H](NC(=O)[C@H](Cc2c[nH]c3ccccc23)NC(=O)[C@@H](CCCN)NC(=O)CNC(=O)[C@H](CCCN)NC(=O)[C@@H](CCCN)NC(=O)[C@@H](Cc2c[nH]c3ccccc23)NC(=O)[C@@H](Cc2ccc(O)cc2)NC(=O)[C@@H](CO)NC(=O)CCCCCC(C)C)[C@@H](C)OC(=O)CNC(=O)CNC(=O)[C@H](CC(N)=O)NC1=O [Lat (2), laterocidine] ({Octanoyl(7-Me)}-[dS][dY][dW][dOrn][Orn]G[dOrn]WTINGG; ester 9-C) | 4 | 2 | 2 | 2 to 4 | >32 | 2 | 
CCC(C)CCC(=O)N[C@H](CC(N)=O)C(=O)N[C@H](Cc1ccc(O)cc1)C(=O)N[C@H](Cc1c[nH]c2ccccc12)C(=O)N[C@H](CCCN)C(=O)N[C@@H](CCCN)C(=O)NCC(=O)N[C@H](CCCN)C(=O)N[C@@H](Cc1c[nH]c2ccccc12)C(N)=O (stereo partly drawn) [Δ9–12LB-NH2 (15)] ({Hexanoyl(4ξ-Me)}-[dN][dY][dW][dOrn][Orn]G[dOrn]W-NH2) | >32 | >32 | >32 | >32 | >32 | >32 | 
CCC(C)CCC(=O)N[C@H](CC(N)=O)C(=O)N[C@H](Cc1ccc(O)cc1)C(=O)N[C@H](Cc1c[nH]c2ccccc12)C(=O)N[C@H](CCCN)C(=O)N[C@@H](CCCN)C(=O)NCC(=O)N[C@H](CCCN)C(=O)N[C@@H](Cc1c[nH]c2ccccc12)C(=O)N[C@@H](Cc1c[nH]c2ccccc12)C(=O)N[C@H](C(=O)NCC(N)=O)[C@@H](C)CC (stereo partly drawn) [Δ12LB (Trp9)-NH2 (56)] ({Hexanoyl(4ξ-Me)}-[dN][dY][dW][dOrn][Orn]G[dOrn]WWIG-NH2) | 8 | 4 | 4 | 8 | 16 | 4 | 4 (≈ 2.61 µM)
CCC(C)CCC(=O)N[C@H](CC(N)=O)C(=O)N[C@H](Cc1ccc(O)cc1)C(=O)N[C@H](Cc1c[nH]c2ccccc12)C(=O)N[C@H](CCCN)C(=O)N[C@@H](CCCN)C(=O)NCC(=O)N[C@H](CCCN)C(=O)N[C@@H](Cc1c[nH]c2ccccc12)C(=O)N[C@H](C(=O)N[C@H](C(=O)NCC(=O)N[C@@H](CO)C(=O)O)[C@@H](C)CC)[C@@H](C)O (stereo partly drawn) [LB-OH (5)] ({Hexanoyl(4ξ-Me)}-[dN][dY][dW][dOrn][Orn]G[dOrn]WTIGS-OH) | 16 | >32 | >32 | >32 | >32 | >32 | 
CCC(C)CCC(=O)N[C@H](CC(N)=O)C(=O)N[C@H](Cc1ccc(O)cc1)C(=O)N[C@H](Cc1c[nH]c2ccccc12)C(=O)N[C@H](CCCN)C(=O)N[C@@H](CCCN)C(=O)NCC(=O)N[C@H](CCCN)C(=O)N[C@@H](Cc1c[nH]c2ccccc12)C(=O)N[C@H](C(N)=O)[C@@H](C)O (stereo partly drawn) [Δ10–12LB-NH2 (13)] ({Hexanoyl(4ξ-Me)}-[dN][dY][dW][dOrn][Orn]G[dOrn]WT-NH2) | >32 | >32 | >32 | >32 | >32 | >32 | 
C=CCOC(=O)NC[C@H](NC(=O)[C@H](Cc1c[nH]c2ccccc12)NC(=O)[C@@H](CCCN)NC(=O)CNC(=O)[C@H](CCCN)NC(=O)[C@@H](CCCN)NC(=O)[C@@H](Cc1c[nH]c2ccccc12)NC(=O)[C@@H](Cc1ccc(O)cc1)NC(=O)[C@@H](CO)NC(=O)CCCCCC(C)C)C(=O)N[C@H](C(=O)N[C@@H](CC(N)=O)C(=O)NCC(=O)NCC(N)=O)[C@@H](C)CC [LL(Dap[Alloc]9)-NH2 (50)] ({Octanoyl(7-Me)}-[dS][dY][dW][dOrn][Orn]G[dOrn]W[Dap](Alloc)INGG-NH2) | 8 | 4 | 2 | 4 | >32 | 4 | 2 (≈ 1.18 µM)
CCC(C)CCC(=O)N[C@H](CC(N)=O)C(=O)N[C@H](Cc1ccc(O)cc1)C(=O)N[C@H](Cc1c[nH]c2ccccc12)C(=O)N[C@H](CCCN)C(=O)N[C@@H](CCCN)C(=O)NCC(=O)N[C@H](CCCN)C(=O)N[C@@H](Cc1c[nH]c2ccccc12)C(=O)N[C@@H](CCSC)C(=O)N[C@H](C(=O)NCC(N)=O)[C@@H](C)CC (stereo partly drawn) [Δ12LB (Met9)-NH2 (55)] ({Hexanoyl(4ξ-Me)}-[dN][dY][dW][dOrn][Orn]G[dOrn]WMIG-NH2) | 4 | 4 | 4 | 4 | >32 | 4 | 2 (≈ 1.35 µM)
